Where a name gives a salt, the structure may show the parent alone. Read-outs that look alike come from different tables or passages of the source.

Series [1] in a line: Subcutaneous injection: implant site macrophage counts and irritation scores. The class given is in vivo, male S-D rats. Conditions: s.c.
Series [2] deals with melanoma cell line B16/F10.
For series [3] the following is noted: for Paclitaxel Concentration (plasma): 120 mg/kg i.p.
The mark [4] stands for this setting: 0.7 ml (polymers 89 mg/kg), 7 Day.
Where [5] appears, read: 0.7 ml (polymers 89 mg/kg), 14 Day.
Where [6] appears, read: 0.7 ml (polymers 89 mg/kg), 31 Day.
[7] abbreviates: 2.0 ml (polymers 267 mg/kg), 7 Day.
Setting [8] is: 2.0 ml (polymers 267 mg/kg), 14 Day.
Setting [9] is: 2.0 ml (polymers 267 mg/kg), 31 Day.
The mark [10] stands for this setting: 28 days, formulation injected on Day 3.
The mark [11] stands for this setting: 28 days, formulation injected on Day 7.
The mark [12] stands for this setting: 42 days, formulation injected on Day 3.
Setting [13] is: 42 days, formulation injected on Day 7.

For the molecule `CC(=O)O` [Acetic Acid], the “# = Mean count (implant site macrophages)” value in series [1] (setting [4]) is given as 208; in series [1] (setting [5]), 166; in series [1] (setting [6]), 20; in series [1] (setting [7]), 267; in series [1] (setting [8]), 334; in series [1] (setting [9]), 32. Moreover, the Irritation result in series [1] (setting [4]) is “Mild (200-400 Mild Irritation)”; in series [1] (setting [5]) it was “Sl. (0-200 Slight Irritation)”; in series [1] (setting [6]), “Sl. (0-200 Slight Irritation)”; in series [1] (setting [7]), “Mild (200-400 Mild Irritation)”; in series [1] (setting [8]), “Mild (200-400 Mild Irritation)”; in series [1] (setting [9]), “Sl. (0-200 Slight Irritation)”.
With `COc1cccc2c1C(=O)c1c(O)c3c(c(O)c1C2=O)C[C@@](O)(C(=O)CO)C[C@@H]3O[C@H]1C[C@H](N)[C@H](O)[C@H](C)O1` [Bolus Dox, doxorubicin hydrochloride], the “Number of Mice Survived” value was 8 in series [2] (setting [10]), 8 in series [2] (setting [11]), 5 in series [2] (setting [12]) and 3 in series [2] (setting [13]). In addition, the “Tumor Volume (mm^3 ± SEM) After Tumor Injection” value stood at 1218.9 ± 304.1 mm^3 in series [2] (setting [10]), 1661.2 ± 301.8 mm^3 in series [2] (setting [11]), 3942.5 ± 1818 mm^3 in series [2] (setting [12]) and 4394.3 ± 741.3 mm^3 in series [2] (setting [13]). The “Early death after injection” value in series [2] (about 3-4 days after the injections) is given as “did not produce early death”.
With `CC(=O)O[C@H]1C(=O)[C@@]2(C)[C@H]([C@H](OC(=O)c3ccccc3)[C@]3(O)C[C@H](OC(=O)[C@H](O)[C@@H](NC(=O)c4ccccc4)c4ccccc4)C(C)=C1C3(C)C)[C@]1(OC(C)=O)CO[C@@H]1C[C@@H]2O` [Paclitaxel w/o polymer, paclitaxel], the “Paclitaxel Concentration (plasma)” value in series [3] (14 days) and in series [3] (28 days) was “Animal died” throughout. For the same molecule, the Tolerability result in series [3] (comparable dose given intraperitoneally) is on record as “could not tolerate the dose”.

These data come from patent publication US6479067B2, “Methods for treating ovarian cancer, poly (phosphoester) compositions, and biodegradable articles for same” (Guilford Pharmaceuticals, Inc., priority 1999, dated 2002).
